Experimental data as given in patent US11116767B2, “3,5-disubstituted pyrazoles useful as checkpoint kinase 1 (Chk1) inhibitors, and their preparations and applications” (PHARMAENGINE, INC., priority 2016, dated 2021).
pIC50: −log10 of the molar value. Read-outs that look alike come from different tables or passages of the source.

Legend:
Chk1 = target: T1, Chk1 (Homo sapiens, UniProt O14757); experiment: biochemical; settings: ADP-Glo; read-out: Chk1 in vitro enzyme activity (grade)
T1 construct: purchased BPS 40039
T1 sequence (O14757 1-476): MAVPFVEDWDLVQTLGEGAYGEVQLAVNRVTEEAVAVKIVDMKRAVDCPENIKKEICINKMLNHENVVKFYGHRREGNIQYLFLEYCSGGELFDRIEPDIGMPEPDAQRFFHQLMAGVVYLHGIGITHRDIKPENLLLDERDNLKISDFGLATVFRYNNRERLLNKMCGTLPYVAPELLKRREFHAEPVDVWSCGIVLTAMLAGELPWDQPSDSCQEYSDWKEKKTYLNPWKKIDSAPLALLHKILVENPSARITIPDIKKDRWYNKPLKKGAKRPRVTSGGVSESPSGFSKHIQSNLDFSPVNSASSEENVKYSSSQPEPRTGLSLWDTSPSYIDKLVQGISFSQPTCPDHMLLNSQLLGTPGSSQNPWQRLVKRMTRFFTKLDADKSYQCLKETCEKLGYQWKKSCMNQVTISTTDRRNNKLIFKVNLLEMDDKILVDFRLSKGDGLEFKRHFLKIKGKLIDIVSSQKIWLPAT

MDA-MB-231 = experiment: Cancer cell growth inhibition assay (CellTiter-Glo), MDA-MB-231; assay type: cell-based, Human; settings: Homo sapiens, MDA-MB-231; 72 hours, cellular ATP content; read-out: MDA-MB-231 anti cell proliferation activity (grade)
Procedure: (§1) Human cancer cell lines were purchased from American Type Culture Collection (Manassas, Va.). The trypsinized cells were diluted to required volume at densities of 44,000 cells/ml. 90 ul cell slurry was dispensed per well in 96-well flat-bottomed plates with the recommended culture medium. The cells were incubated for 24 hours at 37° C. in 5% CO2 under humidified condition. The cells were then incubated with compounds at various concentrations for 72 hours in culture medium supplemented with 0.5% (v/v) FBS. Growth inhibition was assessed by assay of cellular ATP content using CellTiter-Glo reagent to each well. Luminesce was read on Envision. The inhibition rate (%)=(Max signal compound signal)/(Max signal Min signal)×100.

[1] = Human liver S9 metabolic stability; assay type: in vitro ADME; settings: for Percentage Remaining %: 1 μM, 37° C.; for metabolic stability compared with LY2606368: human liver S9; for half-life at 1 μM: human liver S9, 1 μM
Procedure: Compounds (1 μM) were incubated with human liver S9 (from BD Gentest) at final liver microsomal protein concentration of 0.5 mg/mL for 0, 5, 15, 30, 45 min at 37° C. The remaining compounds in the reaction were measured by LC-MS/MS. The half-life (T½) 0.693/K (K is the rate constant from a plot of ln [concentration] vs. incubation time).

[2] = Pharmacokinetics study in rats, intravenous; assay type: in vivo, SD rats; settings: rat, IV; for AUC(0-inf) / AUC(0-t) / clearance / MRT / half-life / Vd: male, SD, plasma, 10 mg/kg; for AUC(0-inf): read-out: AUC0-inf; for AUC(0-t): read-out: AUC0-t; for clearance: read-out: CL (converted); for MRT: read-out: MRT; for half-life: read-out: t½ (converted); for Vd: iv; for half-life and exposure compared with LY2606368: 10 mg/kg (LY2606368 5 mg/kg)
Procedure: Compounds were formulated in 30% SEB-β-CD (Zhiyuan Bio-technology) with 1 molar equivalents of HCl (pH adjusted to 3-5). Male SD rats (280-350 g) were purchased from Medical Laboratory Animal Center of Guangdong. Three rats were used for each PK study. […] At various time points after compound administration, approximately 0.2˜0.3 mL of blood was collected by cutting the end of tail into tubes containing K2-EDTA. The plasma was separated via centrifugation and stored at −80° C. A PE Sciex API-3000 LC-MS/MS system (Applied Biosystems, Inc.) was used to analyze compound concentrations in plasma.
PK studies of ChK1 inhibitors were conducted in rats after intravenous administration at 10 mg/kg. […]. […]

HT-29 = experiment: Cancer cell growth inhibition assay (CellTiter-Glo), HT-29; assay type: cell-based, Human; settings: Homo sapiens, HT-29; 72 hours, cellular ATP content; read-out: HT-29 anti cell proliferation activity (grade)
Procedure: as §1

Chk2 = target: T2, Chk2 (Homo sapiens, UniProt O96017); experiment: biochemical; settings: ADP-Glo; read-out: Chk2 in vitro enzyme activity (grade)
T2 construct: purchased Carna 02-162
T2 sequence (O96017 whole entry): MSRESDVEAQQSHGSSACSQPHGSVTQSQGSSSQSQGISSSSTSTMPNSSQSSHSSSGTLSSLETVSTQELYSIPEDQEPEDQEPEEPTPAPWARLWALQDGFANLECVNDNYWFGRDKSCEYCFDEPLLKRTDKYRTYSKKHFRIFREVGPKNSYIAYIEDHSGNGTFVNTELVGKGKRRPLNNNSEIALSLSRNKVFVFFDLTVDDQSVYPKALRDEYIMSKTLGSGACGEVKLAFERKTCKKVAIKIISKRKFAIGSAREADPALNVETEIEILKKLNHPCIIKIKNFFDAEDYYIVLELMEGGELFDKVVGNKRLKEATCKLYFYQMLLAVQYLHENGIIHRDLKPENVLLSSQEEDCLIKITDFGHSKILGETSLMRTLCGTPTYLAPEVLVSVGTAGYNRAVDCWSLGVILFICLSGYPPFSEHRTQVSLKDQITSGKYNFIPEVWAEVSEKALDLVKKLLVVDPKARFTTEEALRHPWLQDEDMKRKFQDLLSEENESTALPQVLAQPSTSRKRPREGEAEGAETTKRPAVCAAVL

pIC50 (Chk1) | pIC50 (MDA-MB-231) | Percentage Remaining % ([1]; 0 min) [%] | Percentage Remaining % ([1]; 5 min) [%] | Percentage Remaining % ([1]; 15 min) [%] | Percentage Remaining % ([1]; 30 min) [%] | Percentage Remaining % ([1]; 45 min) [%] | metabolic stability compared with LY2606368 [1] | half-life at 1 μM [1] [h] | AUC(0-inf) [2] [ng·h/mL] | AUC(0-t) [2] [ng·h/mL] | clearance [2] [mL/min/kg] | MRT [2] [h] | half-life [2] [h] | Vd ([2]; read-out: Vd) [L/kg] | Vd ([2]; read-out: Vss) [L/kg] | pIC50 (HT-29) | melting point [°C] | pIC50 (Chk2) | Structure (SMILES) | half-life and exposure compared with LY2606368 [2]
≥ 9.00 | 7.30 to 8.00 | 100.00 | 97.57 | 94.83 | 88.45 | 82.67 | more metabolic stable than LY2606368 | 103 | 2400 | 2390 | 78.3 | 3.1 | 3.3 | 22.1 | 14.3 | 7.30 to 8.00 | 198 to 203 | 7.00 to 7.30 | COc1cc(Cl)cc(OCCCN)c1-c1cc(Nc2cnc(C#N)cn2)n[nH]1 [Compound 4, 5-(5-(2-(3-Aminopropoxy)-4-chloro-6-methoxyphenyl)-1H-pyrazol-3-ylamino)pyrazine-2-carbonitrile] | longer half-life and higher exposure than LY2606368
≥ 9.00 | 7.00 to 7.30 | – | – | – | – | – | – | – | 2990 | 2960 | 60 | 2.8 | 5.3 | 29.5 | 10.2 | 7.30 to 8.00 | 165 to 175 | 7.00 to 7.30 | COc1cc(Br)cc(OCCCN)c1-c1cc(Nc2cnc(C#N)cn2)n[nH]1 [Compound 5, 5-(5-(2-(3-Aminopropoxy)-4-bromo-6-methoxyphenyl)-1H-pyrazol-3-ylamino)pyrazine-2-carbonitrile] | longer half-life and higher exposure than LY2606368
≥ 9.00 | 7.30 to 8.00 | – | – | – | – | – | – | – | – | – | – | – | – | – | – | 7.30 to 8.00 | 188 to 191 | 7.00 to 7.30 | COc1cc(C)cc(OCCCN)c1-c1cc(Nc2cnc(C#N)cn2)n[nH]1 [Compound 6, 5-(5-(2-(3-aminopropoxy)-6-methoxy-4-methylphenyl)-1H-pyrazol-3-ylamino)pyrazine-2-carbonitrile] | –
8.00 to 9.00 | 7.30 to 8.00 | – | – | – | – | – | – | – | – | – | – | – | – | – | – | 7.30 to 8.00 | 145 to 151 | 7.30 to 8.00 | COc1cc(OC)c(-c2cc(Nc3cnc(C#N)cn3)n[nH]2)c(OCCCN)c1 [Compound 7, 5-(5-(2-(3-Aminopropoxy)-4,6-dimethoxyphenyl)-1H-pyrazol-3-ylamino)pyrazine-2-carbonitrile] | –
≥ 9.00 | 7.30 to 8.00 | 100.00 | 98.69 | 99.08 | 96.23 | 100.18 | more metabolic stable than LY2606368 | 5 | – | – | – | – | – | – | – | ≥ 8.00 | 202 to 206 | 7.30 to 8.00 | COc1cc(F)cc(OCC2(CN)CC2)c1-c1cc(Nc2cnc(C#N)cn2)n[nH]1 [Compound 13, 5-(5-(2-((1-(Aminomethyl)cyclopropyl)methoxy)-4-fluoro-6-methoxyphenyl)-1H-pyrazol-3-ylamino)pyrazine-2-carbonitrile] | –
≥ 9.00 | 7.30 to 8.00 | – | – | – | – | – | – | – | 3120 | 3100 | 56.7 | 4.1 | 4 | 19.2 | 13.9 | 7.30 to 8.00 | 232 to 236 | 7.30 to 8.00 | COc1cc(Cl)cc(OCC2(CN)CC2)c1-c1cc(Nc2cnc(C#N)cn2)n[nH]1 [Compound 14, 5-(5-(2-((1-(Aminomethyl)cyclopropyl)methoxy)-4-chloro-6-methoxyphenyl)-1H-pyrazol-3-ylamino)pyrazine-2-carbonitrile] | longer half-life and higher exposure than LY2606368
≥ 9.00 | 7.30 to 8.00 | 100.00 | 94.64 | 93.89 | 93.30 | 87.68 | more metabolic stable than LY2606368 | 7.99 | 4980 | 4890 | 63.3 | 3.8 | 7.4 | 46.9 | 19.2 | 7.30 to 8.00 | – | 7.30 to 8.00 | COc1cc(Br)cc(OCC2(CN)CC2)c1-c1cc(Nc2cnc(C#N)cn2)n[nH]1 [Compound 15, 5-(5-(2-((1-(Aminomethyl)cyclopropyl)methoxy)-4-bromo-6-methoxyphenyl)-1H-pyrazol-3-ylamino)pyrazine-2-carbonitrile] | longer half-life and higher exposure than LY2606368
≥ 9.00 | 7.30 to 8.00 | – | – | – | – | – | – | – | – | – | – | – | – | – | – | ≥ 8.00 | 165 to 170 | 7.30 to 8.00 | COc1cc(C)cc(OCC2(CN)CC2)c1-c1cc(Nc2cnc(C#N)cn2)n[nH]1 [Compound 16, 5-(5-(2-((1-(Aminomethyl)cyclopropyl)methoxy)-6-methoxy-4-methylphenyl)-1H-pyrazol-3-ylamino)pyrazine-2-carbonitrile] | –
8.00 to 9.00 | 7.30 to 8.00 | – | – | – | – | – | – | – | – | – | – | – | – | – | – | ≥ 8.00 | 160 to 164 | 7.30 to 8.00 | COc1cc(OC)c(-c2cc(Nc3cnc(C#N)cn3)n[nH]2)c(OCC2(CN)CC2)c1 [Compound 17, 5-(5-(2-((1-(Aminomethyl)cyclopropyl)methoxy)-4,6-dimethoxyphenyl)-1H-pyrazol-3-ylamino)pyrazine-2-carbonitrile] | –
